Data reported in publication PMC11858516, “Promiscuity in Polyphenol–Protein Interactions—Monitoring Protein Conformational Change upon Polyphenol–Protein Binding by Nano-Differential Fluorimetry (Nano-DSF)” (Molecules, 2025).

Key:
Type in all cases: binding
[1] = molecular target: T1, Casein; test: nano-DSF F350/F330 titration, […] fit; details: 37 °C, phosphate buffer pH 6.8, 1:1 stoichiometry assumed
T1 construct: gene CSN1S1

[2] = molecular target: T2, bovine serum albumin (BSA) (Bos taurus, UniProt P02769); test: nano-DSF F350/F330 titration, […] fit; details: read-out: Ka [M^-1] (converted)
T2 construct: gene ALB
T2 sequence (P02769 25-607): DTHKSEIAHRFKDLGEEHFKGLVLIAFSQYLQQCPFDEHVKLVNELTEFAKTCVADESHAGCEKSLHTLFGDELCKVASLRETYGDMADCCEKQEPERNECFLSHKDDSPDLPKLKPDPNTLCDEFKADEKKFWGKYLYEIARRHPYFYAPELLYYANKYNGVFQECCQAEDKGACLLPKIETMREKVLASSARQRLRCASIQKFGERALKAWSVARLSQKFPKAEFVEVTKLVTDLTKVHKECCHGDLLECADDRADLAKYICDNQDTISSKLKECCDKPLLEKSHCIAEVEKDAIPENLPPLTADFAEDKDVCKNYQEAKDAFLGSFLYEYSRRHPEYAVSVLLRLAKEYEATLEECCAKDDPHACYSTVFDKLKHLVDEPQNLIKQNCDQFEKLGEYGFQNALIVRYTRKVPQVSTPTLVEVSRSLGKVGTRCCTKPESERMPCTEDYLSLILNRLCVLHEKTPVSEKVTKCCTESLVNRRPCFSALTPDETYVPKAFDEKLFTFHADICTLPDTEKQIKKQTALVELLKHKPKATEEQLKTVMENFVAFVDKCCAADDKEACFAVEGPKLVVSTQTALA

[3] = molecular target: T3, Ovalbumin (OVA) (Gallus gallus, UniProt P01012); test: nano-DSF F350/F330 ratio; details: 1000 µM; phosphate buffer pH 6.8; 5 µM protein
T3 construct: gene SERPINB14
T3 sequence (P01012 2-386): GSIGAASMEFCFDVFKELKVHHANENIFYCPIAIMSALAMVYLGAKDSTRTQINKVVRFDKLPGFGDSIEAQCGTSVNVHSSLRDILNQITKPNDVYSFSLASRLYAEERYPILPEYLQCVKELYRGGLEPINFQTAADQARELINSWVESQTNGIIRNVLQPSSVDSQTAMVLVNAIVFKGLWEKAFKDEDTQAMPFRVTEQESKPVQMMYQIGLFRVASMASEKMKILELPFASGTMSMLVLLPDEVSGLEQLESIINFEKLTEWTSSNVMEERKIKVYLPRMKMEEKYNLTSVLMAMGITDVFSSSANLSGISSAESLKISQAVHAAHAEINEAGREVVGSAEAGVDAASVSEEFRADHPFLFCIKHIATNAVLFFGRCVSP
Text: nano-DSF F350/F330 ratio on Ovalbumin (OVA)

[4] = molecular target: T2, bovine serum albumin (BSA); test: nano-DSF F350/F330 ratio; details: 1000 µM; phosphate buffer pH 6.8; 5 µM protein
Text: nano-DSF F350/F330 ratio on bovine serum albumin (BSA)

Row | SMILES | Ka [M^-1] [1] | Kd [2] | F350/F330 fluorescence ratio [3] | further results
1 | O=C(/C=C/c1ccc(O)c(O)c1)O[C@H]1[C@H](O)C[C@](O)(C(=O)O)C[C@H]1OC(=O)/C=C/c1ccc(O)c(O)c1 [3,4-diCQA] | 41 271 | 18 µM |  | 
2 | O=C(OC[C@H]1O[C@H](OC(=O)c2cc(O)c(O)c(O)c2)[C@H](OC(=O)c2cc(O)c(O)c(O)c2)[C@@H](OC(=O)c2cc(O)c(O)c(O)c2)[C@@H]1OC(=O)c1cc(O)c(O)c(O)c1)c1cc(O)c(O)c(O)c1 [α-PGG] |  | 89.3 µM |  | 
3 | Oc1cc(O)c2c(c1)O[C@H](c1ccc(O)c(O)c1)[C@H](O)C2 [Epicatechin] |  |  |  | Ka ([1]; µM column is the reciprocal of Ka, the M^-1 cell is misprinted (7 1616)): 139.6 µM
4 | O=C(OC[C@H]1O[C@@H](OC(=O)c2cc(O)c(O)c(O)c2)[C@H](OC(=O)c2cc(O)c(O)c(O)c2)[C@@H](OC(=O)c2cc(O)c(O)c(O)c2)[C@@H]1OC(=O)c1cc(O)c(O)c(O)c1)c1cc(O)c(O)c(O)c1 [β-PGG] |  | 118 µM |  | 
5 | O=C(O[C@@H]1Cc2c(O)cc(O)cc2O[C@@H]1c1cc(O)c(O)c(O)c1)c1cc(O)c(O)c(O)c1 [EGCG] |  |  | 1.25 | F350/F330 fluorescence ratio [4]: 1.57
6 | O=C(/C=C/c1ccc(O)c(O)c1)O[C@@H]1C[C@](O)(C(=O)O)C[C@@H](O)[C@H]1O [5-CQA] | 21 450 |  | 1.02 | 
